In one data set the test system is S. aureus. On the set-up: method as in PMID 28262682. The conditions noted are these: cited from earlier work.
Data set [1] relates to Methicillin sensitive Staphylococcus pseudintermedius (26916). The class given is cell-based. Particulars: 18 h.
For data set [2], the system named is Methicillin resistant Staphylococcus pseudintermedius, (C22963). The format is cell-based. Particulars: 18 h.
Data set [3] deals with Staphylococcus aureus (ATCC 29213). The format is cell-based. Particulars: ATCC 29213, 18 h.
The subject of data set [4] is Pseudomonas aeruginosa (ATCC 27853). The class given is cell-based. Particulars: ATCC 27853, 18 h. The method, then:
To explore the antimicrobial activity of the library of peptides and peptidomimetics, they were tested against Acinetobacter baumannii, Corynebacterium auriscanis, Escherichia coli, Enterococcus faecalis, Enterococcus faecium, Klebsiella pneumonia, Proteus mirabilis, and Pseudomonas aeruginosa. Bacteria grown on agar plates for 18 h at 37 °C were diluted to ~1 × 10^8 CFU/mL in Mueller–Hinton broth (MHB). Two-fold serial dilutions of peptides and peptidomimetics in MHB II were inoculated with bacteria to achieve a final concentration of 5 × 10^5 CFU/mL in polypropylene 96 U-well microtiter plates (Almeco, Esbjerg, Denmark), followed by incubation at 37 °C in ambient air for 18 h. The MIC values were determined as the lowest concentration showing no visible bacterial growth. Experiments were performed twice (in technical triplicates) on two different days.

Data set [5] has as its system DNA synthesis in MRSP E104. Briefly: Macromolecule biosynthesis assay, DNA (3H-thymidine). The conditions noted are these: 0.5× MIC, 20 min incubation, MRSP E104, 3H-thymidine; means of two experiments. The format is cell-based, Staphylococcus pseudintermedius. The method, then:
(§1) The effect on DNA and cell wall synthesis was investigated after 20 min of incubation of MRSP E104 with the precursors ^3H-thymidine and ^3H-glucosamine hydrochloride, respectively, as previously reported by Ling et al.. Following macromolecule precipitation, radioactivity was counted using scintillation fluid. Incorporation of ^3H- or ^14C-labeled thymidine has been used to investigate DNA replication and transcriptional activity during the cell cycle; ^3H-glucosamine hydrochloride has been used in a mode of action study for the antimicrobial peptide plectasin, which targets the cell wall precursor lipid II [44].
(§2) Macromolecules (DNA and cell wall) biosynthesis rates were measured using strain MRSP E104 following a protocol adapted from Ling et al.. Briefly, overnight culture of E104 was diluted 1:100 in MHB and freshly grown up to OD 0.2 at 600 nm. Grown cells were pelleted down by centrifugation and then resuspended in fresh MHB medium followed by incubation for 20 min on a dry heat-bath with D2 or analogues or nisin and radiolabeled precursor: (50 µCi) ^3H-Thymidine (PerkinElmer) and (5 µCi) ^3H-glucosamine hydrochloride per mL for DNA and cell wall, respectively. A positive control without antimicrobials was maintained that corresponds to 100% synthesis rate. After 20 min of incubation, samples were precipitated with equal volume of cold 30% trichloroactic acid (TCA Sigma, Søborg, Denmark) on ice. After 15 to 30 min of incubation on ice, precipitates were filtered on a membrane filter and subsequently washed twice with cold 15% TCA and twice with cold water using a vacuum manifold. Next, filters were air dried overnight and then moved to 10 mL scintillation vials. Finally, 3 mL scintillation fluid was added to each vial and ^3H count was taken in Beckman Coulter LS6500 liquid scintillation counter for 1 min. The radioactive counts of the control samples with no antimicrobial exposure were considered to have 100% precursor incorporation and macromolecule synthesis. The percentage rates of macromolecule synthesis in the antimicrobial-exposed samples were calculated compared to control. Each experiment was performed twice with a technical replicate, and the average rates of synthesis were plotted.

Data set [6] relates to cell wall synthesis in MRSP E104. Briefly: Macromolecule biosynthesis assay, cell wall (3H-glucosamine hydrochloride). Particulars: 0.5× MIC, 20 min incubation, MRSP E104, 3H-glucosamine hydrochloride; means of two experiments. The format is cell-based, Staphylococcus pseudintermedius. The protocol: as §1, §2
Data set [7] concerns membrane proton motive force of E104 cells. Briefly: DiSC3(5) fluorescence, membrane depolarization. The class given is cell-based, Staphylococcus pseudintermedius. Particulars: 0.5× MIC, n = 2. The source says: In this study, the DiSC3(5) probe was used to assess the effect of D2 and its structural analogues D2L, D2D, and D2R on cytoplasmic membrane depolarization. DiSC3(5) is a cationic carbocyanine dye, which accumulates on negatively charged membrane, translocates into lipid membrane with a distribution dependent on plasma and mitochondrial membrane potential. Altered emission profile of DiSC3(5) measured via fluorescence spectroscopy indicates membrane depolarization caused by proton motive force dissipation, ATP production and/or pore formation. The increment of DiSC3(5) fluorescence of labeled cells resulting from its leakage upon addition of antimicrobial agents is usually measured over time. The protonophore carbonyl cyanide metachlorophenyl hydrazone (CCCP) is used as positive control, which rapidly dissipates PMF increasing proton permeability, alters both membrane proton gradient and transmembrane electric potential and decreases cellular ATP content. Based on the MIC and growth analysis results, sub-lethal concentrations of D2 and selected analogues were chosen to perform DiSC3(5) fluorescence and macromolecule biosynthesis studies.
Freshly grown E104 cells with OD 0.2 at 600 nm were labeled with 1 µM 3,3-dipropylthiadicarbocyanine iodide [DiSC3(5)] (Sigma-Aldrich, Søborg, Denmark) in MHB. The fluorescence spectra of fluorophore-labeled cells were plotted using the LS-50B luminescence spectrometer (PerkinElmer, Waltham, MA, USA) at excitation/emission wavelengths 546 nm/573 nm using time drive application of FLWINLAB software. After reading initial stable emission spectra of DiSC3(5), labeled cells were exposed with D2 or analogues or nisin or protonophore CCCP by directly injecting the concentrated solution of agent to the cuvette, and the change of fluorescence over time was recorded until emission spectra reached to stability. The increment of DiSC3(5) fluorescence upon addition of antimicrobials or CCCP (FUafter-exposure – FUbefore-exposure) was calculated and plotted in addition to raw fluorescence spectra. Experiment was performed twice and average fluorescence change was plotted with standard deviation.

The test system of the next data set is MRSP ST71 strain E104. Briefly: Growth curve analysis (BioScreen). The format is cell-based, Staphylococcus pseudintermedius. The conditions noted are these: at the MIC, MRSP E104, OD600, 6 h, 37 °C. The method, then: First, we performed growth curve analysis using the well-characterized MRSP ST71 strain E104, which is resistant to a number of antibiotics. […] A well-characterized antimicrobial peptide, nisin, was used as control. […] Increased concentrations of nisin inhibited proportionally the growth of E104, both at sub-MIC and MIC concentrations.
The effect of D2 or analogues or nisin on the growth of MRSP strain E104 was evaluated using BioScreen (Oy Growth Curves Ab LTd, Helsinki, Finland). Freshly grown culture of E104 was diluted to OD 0.2 at 600 nm, supplemented with increased concentration of antimicrobials and distributed in a 100 well honeycomb micro-plate with volume 100 μL. The plate was incubated for 6 h at 37 °C with continuous shaking. The OD600 of each micro-culture was measured and recorded every 15 min after a 5 s pause of shaking in automatic mode. Recorded OD was plotted against time to prepare the growth curves. Experiment was performed twice and one representative result was presented.

The next data set relates to red blood cell (RBC). Particulars: 0.5% RBC suspension in PBS, 1 h, 37 °C, read at 414 nm, normalized to mellitin and PBS, triplicates.

Values after ≈ are worked out from the molar mass of the structure shown. Non-standard residues stand in square brackets, D forms with d. Residues, ends and D or L forms follow the SMILES beside them. No end group written: not given here. 1Nal = N[C@@H](Cc1cccc2ccccc12)C(=O)O; Nle = CCCC[C@H](N)C(=O)O

Protocol for red blood cell (RBC): Briefly, 75 µL of peptide in PBS was mixed with 75 µL of a 0.5% red blood cell (RBC) suspension in PBS, and incubated for 1 h at 37 °C. The hemoglobin release was then measured at 414 nm and normalized, using mellitin as positive control and PBS as negative control. Experiments were done in triplicates.

Take KLKLLLLLKLK-NH2: in the data set with S. aureus, the “antimicrobial activity (MIC) against S. aureus” value is 16 µg/mL.
In the case of `CCCC[C@H](NC(=O)[C@H](CCCCN)NC(=O)[C@H](Cc1cccc2ccccc12)NC(=O)[C@H](CCCCN)NC(=O)[C@H](Cc1ccccc1)NC(=O)[C@H](Cc1cccc2ccccc12)NC(=O)[C@H](CCCCN)NC(=O)[C@@H](N)CCCCN)C(N)=O` [D2L] (H-KK[1Nal]FK[1Nal]K[Nle]-NH2; N-terminus assumed), the “MIC MSSP” value in [1] turned out to be 16 µg/mL (≈ 13.5 µM). Moreover, the “MIC MRSP” value in [2] is 8 µg/mL (≈ 6.75 µM). In data set [3], the “MIC SA” value is 32 µg/mL (≈ 27 µM). Moreover, the “MIC PA” value in data set [4] turned out to be 16 µg/mL (≈ 13.5 µM). Moreover, the “inhibition of DNA biosynthesis rate” value in data set [5] worked out at 17%. Besides, the “effect on (inhibition of) cell wall synthesis” value in data set [6] came out at 31%. Also, the “effect on PMF (membrane depolarization, DiSC3(5) fluorescence)” value (from here on “effect on PMF”) in data set [7] is “strongest effect on PMF”. For the same compound, the “growth curve, change of cell optical density over time” value in the data set with MRSP ST71 strain E104 is recorded as “cell lysis”. Also, in the data set with red blood cell (RBC), the “HA, percentage of hemolysis at 150 µM” value is reported as 35%.
With “nisin (ITSISLCTPGCKTGALMGCNMKTATCHCSIHVSK; also: lantibiotic: lanthionine rings and dehydro residues, places not given here; UniProt P13068 24-57, looked up) [well-characterized antimicrobial peptide used as control, reference compound]”, in data set [5], the “inhibition of DNA biosynthesis rate” value is on record as 45%. For the same compound, the “effect on PMF” value in data set [7] is “does not have any effect on PMF”.
As to `CCCC[C@H](N)C(=O)N[C@@H](CCCCN)C(=O)N[C@@H](Cc1cccc2ccccc12)C(=O)N[C@@H](CCCCN)C(=O)N[C@@H](Cc1ccccc1)C(=O)N[C@@H](Cc1cccc2ccccc12)C(=O)N[C@@H](CCCCN)C(=O)N[C@@H](CCCCN)C(N)=O` [D2R] (H-[Nle]K[1Nal]KF[1Nal]KK-NH2; N-terminus assumed), the “MIC MSSP” value in [1] amounted to 16 µg/mL (≈ 13.5 µM). Besides, the “MIC MRSP” value in [2] came to 4 µg/mL (≈ 3.38 µM). Also, in data set [3], the “MIC SA” value was found to be 32 µg/mL (≈ 27 µM). Also, the “MIC PA” value in data set [4] was in the range of 32 to 64 µg/mL. The “inhibition of DNA biosynthesis rate” value in data set [5] is recorded as below 5%. Also, the “effect on (inhibition of) cell wall synthesis” value in [6] was 22%. Besides, in [7], the “effect on PMF” value is listed as “strongest effect on PMF”. Further, the “growth curve, change of cell optical density over time” value with MRSP ST71 strain E104 is on record as “cell lysis”. Moreover, the “HA, percentage of hemolysis at 150 µM” value in the data set on red blood cell (RBC) was determined as 23%.

The values above are taken from article PMC6470533, “Structure–Activity Study, Characterization, and Mechanism of Action of an Antimicrobial Peptoid D2 and Its D- and L-Peptide Analogues” (Molecules, 2019).
